Source: ChEMBL document CHEMBL1201862, “PubChem BioAssay data set” (2004)
Activity calls are given as the source filed them.

Key:
[1] = target: T1, Polyadenylate-binding protein 1 (Homo sapiens, UniProt P11940); experiment: PABP1 MLLE–PAM2 interaction inhibitors, dose response, miRNA deadenylation inhibitor project, biochemical, fluorescence polarization, Cy5-PAM2 peptide, secondary (AID 602260); assay type: functional; settings: read-out: IC50_Mean
[2] = target: T1, Polyadenylate-binding protein 1; experiment: PABP1 MLLE–PAM2 binding inhibitor potency, dose response, biochemical, fluorescence polarization, FITC-PAM2 peptide (AID 602259); assay type: functional; settings: read-out: IC50_Mean
[3] = target: T2, Fatty acid synthase (Homo sapiens, UniProt P49327); experiment: FAS thioesterase domain inhibitors, dose response, biochemical, endpoint fluorescence intensity, uHTS hits (AID 624327); assay type: functional;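 note: fluorescence from hydrolysis of an O-methyl fluorescein acyl ester substrate by the enzyme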
[4] = target: T2, Fatty acid synthase; experiment: FAS thioesterase domain inhibitors, dose response, biochemical, kinetic fluorescence intensity (AID 624326); assay type: functional;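 note: rate of fluorescence rise from hydrolysis of a fluorogenic O-methyl fluorescein ester substrate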
[5] = cells; assay type: functional, cell-based
[6] = cells; assay type: functional, cell-based; remark: listed apart in the source
[7] = Luminescence Cell-Based Dose Confirmation HTS to Identify Activators of 5'UTR Stem-Loop Driven Alpha-Synuclein mRNA Translation in H4 Neuroglioblastoma Cells. [Related pubchem assays: 1829 (Project Summary), 1814 (Primary HTS)]; assay type: functional
[8] = Luminescence Cell-Based Dose Response HTS to Identify Activators of Luciferase Translation or Activity in H4 […] Cells. [Related pubchem assays: 1829 (Project Summary), 1814 (Primary HTS)]; assay type: functional
[9] = test system: H4; experiment: Luminescence Cell-Based Dose Response HTS to Identify Activators of 5'UTR Stem-Loop Driven Prion Protein mRNA Translation in H4 Neuroglioblastoma Cells. [Related pubchem assays: 1829 (Project Summary), 1814 (Primary HTS)]; assay type: functional; settings: Homo sapiens
[10] = HepG2 cell cytotoxicity, dose response, cytotoxicity control for Shn3 inhibitor project, CellTiter-Glo, cherry-picked (AID 624134); assay type: functional, cell-based
[11] = Shn3 3'UTR reporter inhibitors, dose response, cell-based, Clone20 osteoblasts, firefly luciferase, cherry-picked (AID 624132); assay type: functional;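 note: firefly luciferase luminescence from reporter carrying the Shn3 3'UTR in osteoblasts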
[12] = control 3'UTR Renilla luciferase suppression, dose response, counter-screen for Shn3 inhibitor project, cell-based, Clone20-Shn3RL, cherry-picked (AID 624133); assay type: functional
[13] = NIH-3T3 fibroblast cytotoxicity, dose response, cytotoxicity control, cell-based, fluorescence, Alamar Blue, secondary assay (AID 2327); assay type: functional;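 note: NIH-3T3 mouse fibroblasts cultured with fluconazole at 8 µg/mL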
[14] = C. albicans growth with fluconazole, confirmation, fluorescence, retest (AID 2467); assay type: functional, cell-based
[15] = target: T3, Replicative DNA helicase DnaB (Mycobacterium tuberculosis, UniProt P9WMR3); experiment: DnaB intein splicing inhibitors, dose response, biochemical, cell-free fluorescence (AID 449749); assay type: functional
T3 sequence (P9WMR3 whole entry): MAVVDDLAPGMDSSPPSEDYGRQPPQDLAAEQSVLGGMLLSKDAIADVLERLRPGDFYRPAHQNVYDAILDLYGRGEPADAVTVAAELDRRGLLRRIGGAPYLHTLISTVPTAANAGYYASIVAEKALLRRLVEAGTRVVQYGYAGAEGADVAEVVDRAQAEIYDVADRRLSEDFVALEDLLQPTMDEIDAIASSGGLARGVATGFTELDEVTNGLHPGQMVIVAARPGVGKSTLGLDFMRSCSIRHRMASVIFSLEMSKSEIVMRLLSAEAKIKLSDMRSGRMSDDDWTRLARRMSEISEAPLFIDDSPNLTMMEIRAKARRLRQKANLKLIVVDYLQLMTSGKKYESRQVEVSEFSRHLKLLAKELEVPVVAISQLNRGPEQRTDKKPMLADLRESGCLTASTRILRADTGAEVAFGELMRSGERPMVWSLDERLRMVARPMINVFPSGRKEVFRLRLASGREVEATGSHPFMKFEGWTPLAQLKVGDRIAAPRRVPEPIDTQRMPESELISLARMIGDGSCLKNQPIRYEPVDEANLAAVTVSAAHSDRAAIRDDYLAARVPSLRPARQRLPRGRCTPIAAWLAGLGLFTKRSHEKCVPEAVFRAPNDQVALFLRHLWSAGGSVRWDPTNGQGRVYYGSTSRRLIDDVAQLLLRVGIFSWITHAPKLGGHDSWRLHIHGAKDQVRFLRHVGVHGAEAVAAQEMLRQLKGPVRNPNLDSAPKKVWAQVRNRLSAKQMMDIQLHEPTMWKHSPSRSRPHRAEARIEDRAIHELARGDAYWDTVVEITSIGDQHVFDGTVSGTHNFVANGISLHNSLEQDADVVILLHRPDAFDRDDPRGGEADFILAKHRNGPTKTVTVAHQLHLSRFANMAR

[16] = target: T4, Protein RecA (Mycobacterium tuberculosis, UniProt P9WHJ3); experiment: Fluorescence Cell-Free Homogeneous Dose Retest to Identify Inhibitors of RecA-Intein Splicing Activity. [Related pubchem assays (depositor defined):AID2097, AID2223, AID489010, AID492950]; assay type: functional
T4 sequence (P9WHJ3 whole entry): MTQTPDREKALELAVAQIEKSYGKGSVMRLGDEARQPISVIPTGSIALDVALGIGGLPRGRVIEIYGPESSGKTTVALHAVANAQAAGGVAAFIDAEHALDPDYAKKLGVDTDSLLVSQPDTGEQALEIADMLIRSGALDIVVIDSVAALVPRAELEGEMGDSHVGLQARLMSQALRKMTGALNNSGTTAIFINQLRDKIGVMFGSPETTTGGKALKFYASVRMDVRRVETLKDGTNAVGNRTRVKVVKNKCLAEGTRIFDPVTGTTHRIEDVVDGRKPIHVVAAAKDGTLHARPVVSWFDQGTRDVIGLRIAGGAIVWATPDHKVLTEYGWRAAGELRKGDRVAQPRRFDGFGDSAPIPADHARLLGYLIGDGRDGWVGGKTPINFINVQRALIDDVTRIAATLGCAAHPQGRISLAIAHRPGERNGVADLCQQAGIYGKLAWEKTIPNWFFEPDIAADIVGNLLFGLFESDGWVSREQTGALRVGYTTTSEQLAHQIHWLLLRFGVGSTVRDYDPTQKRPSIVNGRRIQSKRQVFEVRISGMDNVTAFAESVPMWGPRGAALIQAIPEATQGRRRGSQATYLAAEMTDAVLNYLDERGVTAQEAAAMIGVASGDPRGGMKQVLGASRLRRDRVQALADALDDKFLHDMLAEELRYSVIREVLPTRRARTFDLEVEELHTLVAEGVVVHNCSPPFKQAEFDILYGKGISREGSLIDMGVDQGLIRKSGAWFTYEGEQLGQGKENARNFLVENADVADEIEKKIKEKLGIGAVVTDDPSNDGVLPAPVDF

[17] = target: T5, Heat shock factor protein 1 (Mus musculus, UniProt P38532); experiment: inhibition of MG132-induced HSE-luciferase signal, confirmation, cell-based, NIH3T3, luminescence, dose retest (AID 2382); assay type: functional;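 note: NIH3T3 fibroblasts with HSF1-driven luciferase reporter stressed by proteasome inhibitor MG132; luminescence from HSF1-driven luciferase expression after 8 hours of MG132 stress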
T5 sequence (P38532 whole entry): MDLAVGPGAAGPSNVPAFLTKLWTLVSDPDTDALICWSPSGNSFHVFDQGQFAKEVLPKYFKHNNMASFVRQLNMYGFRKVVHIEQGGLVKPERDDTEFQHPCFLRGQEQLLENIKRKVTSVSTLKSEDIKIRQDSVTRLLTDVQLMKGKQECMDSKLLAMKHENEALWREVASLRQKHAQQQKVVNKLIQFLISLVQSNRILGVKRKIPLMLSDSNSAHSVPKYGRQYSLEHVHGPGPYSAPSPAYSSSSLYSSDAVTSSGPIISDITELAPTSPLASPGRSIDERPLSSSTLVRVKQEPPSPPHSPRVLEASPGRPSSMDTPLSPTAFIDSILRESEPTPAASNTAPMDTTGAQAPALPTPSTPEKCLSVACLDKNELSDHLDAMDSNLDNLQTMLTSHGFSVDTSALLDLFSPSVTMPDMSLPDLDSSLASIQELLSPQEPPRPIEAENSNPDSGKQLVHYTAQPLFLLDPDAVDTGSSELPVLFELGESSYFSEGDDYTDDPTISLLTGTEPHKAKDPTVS

T1 sequence (P11940 whole entry): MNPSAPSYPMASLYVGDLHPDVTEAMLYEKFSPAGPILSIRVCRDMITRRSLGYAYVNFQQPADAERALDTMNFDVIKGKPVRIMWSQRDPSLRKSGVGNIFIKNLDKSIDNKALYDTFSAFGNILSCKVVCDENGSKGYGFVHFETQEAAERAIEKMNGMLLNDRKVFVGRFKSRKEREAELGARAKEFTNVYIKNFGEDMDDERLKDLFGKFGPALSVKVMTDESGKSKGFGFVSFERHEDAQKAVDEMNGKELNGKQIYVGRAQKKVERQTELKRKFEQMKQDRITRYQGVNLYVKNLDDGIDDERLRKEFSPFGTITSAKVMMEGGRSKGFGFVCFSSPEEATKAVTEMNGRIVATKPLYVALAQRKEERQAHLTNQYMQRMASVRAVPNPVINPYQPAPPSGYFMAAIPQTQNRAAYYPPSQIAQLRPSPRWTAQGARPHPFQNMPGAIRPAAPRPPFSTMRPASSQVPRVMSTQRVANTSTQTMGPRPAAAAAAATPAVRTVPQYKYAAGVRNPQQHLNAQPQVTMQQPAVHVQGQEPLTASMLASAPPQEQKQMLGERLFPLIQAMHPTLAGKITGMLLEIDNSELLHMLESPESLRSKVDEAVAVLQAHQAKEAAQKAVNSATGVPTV
T2 sequence (P49327 whole entry, the tested form may be a part): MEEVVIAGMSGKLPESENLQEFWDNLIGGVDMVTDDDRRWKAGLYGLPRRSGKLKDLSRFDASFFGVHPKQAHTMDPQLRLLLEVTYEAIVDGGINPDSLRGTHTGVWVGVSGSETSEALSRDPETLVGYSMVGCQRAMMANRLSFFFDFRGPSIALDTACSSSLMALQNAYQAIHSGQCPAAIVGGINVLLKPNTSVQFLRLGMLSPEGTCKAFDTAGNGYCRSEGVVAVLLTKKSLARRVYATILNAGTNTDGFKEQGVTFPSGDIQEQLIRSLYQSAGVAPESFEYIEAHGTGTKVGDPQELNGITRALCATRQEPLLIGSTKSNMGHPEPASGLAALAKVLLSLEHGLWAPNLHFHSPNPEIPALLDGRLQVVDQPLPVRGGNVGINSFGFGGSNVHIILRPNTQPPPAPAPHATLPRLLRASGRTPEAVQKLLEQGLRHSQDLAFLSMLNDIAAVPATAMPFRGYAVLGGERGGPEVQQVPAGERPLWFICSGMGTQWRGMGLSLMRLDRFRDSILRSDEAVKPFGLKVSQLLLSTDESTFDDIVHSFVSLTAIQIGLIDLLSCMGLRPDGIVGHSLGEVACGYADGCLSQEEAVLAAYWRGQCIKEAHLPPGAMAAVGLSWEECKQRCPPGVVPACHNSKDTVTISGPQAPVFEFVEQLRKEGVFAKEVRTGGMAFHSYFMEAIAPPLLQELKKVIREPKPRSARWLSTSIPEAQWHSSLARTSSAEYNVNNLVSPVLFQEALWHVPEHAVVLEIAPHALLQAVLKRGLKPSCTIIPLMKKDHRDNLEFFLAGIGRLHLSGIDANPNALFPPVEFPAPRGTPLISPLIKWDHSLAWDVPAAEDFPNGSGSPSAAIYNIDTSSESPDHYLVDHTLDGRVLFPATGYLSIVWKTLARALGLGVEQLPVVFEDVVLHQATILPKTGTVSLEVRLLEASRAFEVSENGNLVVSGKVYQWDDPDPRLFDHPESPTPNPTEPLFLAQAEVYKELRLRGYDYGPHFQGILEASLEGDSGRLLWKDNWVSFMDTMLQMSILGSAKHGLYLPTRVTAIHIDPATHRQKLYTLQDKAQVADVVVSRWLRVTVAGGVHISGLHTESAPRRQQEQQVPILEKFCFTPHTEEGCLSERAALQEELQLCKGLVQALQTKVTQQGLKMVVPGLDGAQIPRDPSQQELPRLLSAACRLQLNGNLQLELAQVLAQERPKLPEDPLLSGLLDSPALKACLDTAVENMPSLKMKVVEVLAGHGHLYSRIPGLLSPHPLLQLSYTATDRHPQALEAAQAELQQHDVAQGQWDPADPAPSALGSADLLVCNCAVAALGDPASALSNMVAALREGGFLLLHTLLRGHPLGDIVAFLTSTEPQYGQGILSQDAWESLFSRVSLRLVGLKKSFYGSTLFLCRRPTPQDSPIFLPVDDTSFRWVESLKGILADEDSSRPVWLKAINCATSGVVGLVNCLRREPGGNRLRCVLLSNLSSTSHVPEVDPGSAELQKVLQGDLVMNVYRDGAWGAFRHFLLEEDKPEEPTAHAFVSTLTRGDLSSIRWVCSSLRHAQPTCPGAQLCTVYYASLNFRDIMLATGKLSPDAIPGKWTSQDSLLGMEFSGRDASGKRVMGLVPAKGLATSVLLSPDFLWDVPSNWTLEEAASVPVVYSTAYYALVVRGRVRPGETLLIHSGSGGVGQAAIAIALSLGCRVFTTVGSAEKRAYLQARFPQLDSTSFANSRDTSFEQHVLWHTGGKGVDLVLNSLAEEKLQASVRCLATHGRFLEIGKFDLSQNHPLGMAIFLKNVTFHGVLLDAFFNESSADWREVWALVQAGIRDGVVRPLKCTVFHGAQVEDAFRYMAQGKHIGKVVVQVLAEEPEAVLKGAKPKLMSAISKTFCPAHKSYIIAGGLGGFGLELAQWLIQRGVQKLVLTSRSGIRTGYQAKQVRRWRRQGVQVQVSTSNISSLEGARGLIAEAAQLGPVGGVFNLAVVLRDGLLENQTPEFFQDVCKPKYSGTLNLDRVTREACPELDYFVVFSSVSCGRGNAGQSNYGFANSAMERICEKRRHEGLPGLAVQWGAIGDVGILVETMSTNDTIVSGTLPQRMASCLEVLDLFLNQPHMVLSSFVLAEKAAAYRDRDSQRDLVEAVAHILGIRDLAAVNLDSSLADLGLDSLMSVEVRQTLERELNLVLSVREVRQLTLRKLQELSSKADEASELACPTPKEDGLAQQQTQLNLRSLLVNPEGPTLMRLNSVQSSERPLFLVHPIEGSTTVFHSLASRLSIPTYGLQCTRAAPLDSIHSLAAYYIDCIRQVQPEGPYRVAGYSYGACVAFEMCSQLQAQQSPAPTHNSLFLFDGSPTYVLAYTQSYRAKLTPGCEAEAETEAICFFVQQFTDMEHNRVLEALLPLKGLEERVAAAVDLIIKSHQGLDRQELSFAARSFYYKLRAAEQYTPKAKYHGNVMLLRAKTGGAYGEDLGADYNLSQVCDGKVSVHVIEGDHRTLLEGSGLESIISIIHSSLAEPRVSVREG

In the case of NS(=O)(=O)c1ccc(NC(=S)NC(=O)c2ccc(-c3ccccc3)cc2)cc1, the IC50 [1] is reported as > 66 µM (inactive) and the IC50 [2] is reported as > 66 µM (inactive).

For Cc1ccc(CN(CC(=O)NC2CCCC2)C(=O)CSc2nnc(COc3ccccc3)o2)cc1, the IC50 [1] was > 66 µM (inactive) and the IC50 [2] was > 66 µM (inactive).

With O=C(COc1ncnc2ccccc12)Nc1ccc(Cl)c([N+](=O)[O-])c1 the IC50 [3] was 8.42 µM (active) and the IC50 [4] was 6.52 µM (active).

In the case of O=C(Cn1c(SCC(=O)N2CCCc3ccccc32)nc2ccccc21)N1CCCC1, the EC50 [5] is reported as > 350 µM (not active) and the EC50 [6] is reported as > 350 µM (not active).

With C1=C(CCNc2[nH]cnc3ncnc2-3)CCCC1 the EC50 [7] was 52.3 µM (active), the EC50 [8] was 20 µM (active) and the EC50 [9] was 40 µM (active).

In the case of CCOc1ccc(NC(=O)CSc2nnc(Cn3cnc4ccccc43)n2C)cc1, the EC50 [5] is reported as > 350 µM (not active) and the EC50 [6] is reported as > 350 µM (not active).

In the case of Cc1ccc2c(c1)sc(C)[n+]2CCCS(=O)(=O)[O-], the IC50 [1] is reported as > 66 µM (inactive) and the IC50 [2] is reported as > 66 µM (inactive).

For NC(=NOC(=O)CCC1CCCC1)c1cccc([N+](=O)[O-])c1, the IC50 [3] was 7.47 µM (active) and the IC50 [4] was 4.54 µM (active).

For CCCCNC(=O)CN1C(=O)c2cccc(N)c2C1=O, the IC50 [1] was > 66 µM (inactive) and the IC50 [2] was 31.6 µM (inactive).

In the case of C=C(C)CSc1ncc(-c2cccc(C(F)(F)F)c2)cn1, the IC50 [3] is reported as 13.3 µM (active) and the IC50 [4] is reported as 6.31 µM (active).

For CCN(CC)S(=O)(=O)c1ccc(N(C)Cc2cccc(OC)c2OC)nc1, the AC50 [10] was 57.1 µM (active).

For Cc1nnsc1[S+]([O-])c1ccc(Br)cc1 (stereo not given), the EC50 [7] was 21.9 µM (active), the EC50 [8] was 6.67 µM (active) and the EC50 [9] was > 120 µM (not active).

In the case of CC12CC3(C)CC(C)(C1)CC(C(=O)NC(=S)NC(C)(C)C)(C2)C3, the IC50 [1] is reported as > 66 µM (inactive) and the IC50 [2] is reported as > 66 µM (inactive).

For Cc1ccc(CC(=O)Nc2ccncc2)cc1, the AC50 [11] was 2.39 µM (active), the AC50 [10] was 3.99 µM (active) and the AC50 [12] was 15.2 µM (active).

For CCOC(=O)C1CCCN(C(=O)c2ccc3oc(CCc4ccccc4)nc3c2)C1 (stereo not given), the EC50 [13] was > 150 µM (inactive), the EC50 [5] was > 350 µM (not active) and the EC50 [14] was > 38 µM (not active). The EC50 [6] was > 350 µM (not active).

With O=[N+]([O-])c1cccc(-c2ccc(SCc3cccnc3)nn2)c1 the IC50 [3] was 8.53 µM (active) and the IC50 [4] was 8.99 µM (active).

With Clc1ccc(Nc2nc3cccnc3s2)cc1 the EC50 [7] was 0.341 µM (active) and the EC50 [8] was 0.333 µM (active).

For O=S(=O)(CCSc1nc2ccccc2s1)c1nc2ccccc2s1, the EC50 [5] was > 350 µM (not active), the EC50 [6] was > 350 µM (not active) and the AC50 [15] was 2.29 µM (active). For the same molecule, the EC50 [16] was 2.22 µM (active).

With COC(=O)C(NC(=O)c1c(C)nn(C)c1Cl)c1ccccc1 (stereo not given) the EC50 [5] was > 350 µM (not active) and the EC50 [6] was > 350 µM (not active).

For CC(CC(=O)Nc1nnc(C(C)(C)C)s1)c1ccccc1 (stereo not given), the IC50 [1] was > 66 µM (inactive) and the IC50 [2] was > 66 µM (inactive).

For CC(C)(C)NC(=O)/C(=C\C=C\c1ccccc1)NC(=O)c1ccc([N+](=O)[O-])cc1, the IC50 [3] was 0.491 µM (active) and the IC50 [4] was 0.462 µM (active).

With Cc1ccc(C2CCN(C(S)=NC(C)(C)C)C2)cc1 (stereo not given) the EC50 [7] was 14.9 µM (active), the EC50 [8] was 18.1 µM (active) and the EC50 [9] was 62.4 µM (active). The EC50 [17] was > 195 µM (not active).

In the case of CC(=O)c1ccc(NC(S)=NCCc2ccc(S(N)(=O)=O)cc2)cc1, the IC50 [1] is reported as > 66 µM (inactive) and the IC50 [2] is reported as > 66 µM (inactive).

For COC(=O)C1=C(C(=O)OC)[C@@H]2N(Cc3ccccc3)c3ccccc3[C@@]23C[C@@H](C(=O)OC)N(C(=O)c2ccc(Br)cc2)C3=N1, the AC50 [11] was 8.52 µM (active), the AC50 [10] was 34.8 µM (active) and the AC50 [12] was 23.7 µM (active).

In the case of COc1cccc(OCCn2cc(C(C)=O)c3ccccc32)c1, the AC50 [11] is reported as 1.85 µM (active), the AC50 [10] is reported as 7.55 µM (active) and the AC50 [12] is reported as 7.82 µM (active).

For O=C(Nc1ccccc1[N+](=O)[O-])c1ccc(S(=O)(=O)N2CCCC2)cc1, the EC50 [7] was 10.8 µM (active), the EC50 [8] was 9.21 µM (active) and the EC50 [9] was 14.6 µM (active).

In the case of O=C(NNS(=O)(=O)c1ccc([N+](=O)[O-])cc1)c1ccc2ccccc2c1O, the IC50 [3] is reported as 7.74 µM (active) and the IC50 [4] is reported as 6.99 µM (active).

With c1ccc(P(c2ccccc2)c2ccccn2)cc1 the IC50 [1] was > 66 µM (inactive) and the IC50 [2] was > 66 µM (inactive).

With COc1cc(C)c(NC(=O)COc2cccc3c2OC(C)(C)C3)cc1OC the AC50 [11] was 7.06 µM (active), the AC50 [10] was 65.7 µM (active) and the AC50 [12] was 11.3 µM (active).
